Measured values: the NIST ThermoML archive (doi:10.1021/je2000827)

Conditions: Liquid; for vapor or sublimation pressure: Closed cell (Static) method

FC(F)Cl [chlorodifluoromethane]
Conditions | mass density [kg/m3] | vapor or sublimation pressure [kPa]
237.03 K | 1396.88 | 125.48
242.05 K | 1380.58 | 156.52
248.23 K | 1361.7 | 202.41
250.79 K | 1352.02 | 223.86
257.12 K | 1333.18 | 285.6
262.27 K | 1317.65 | 343.76
267.03 K | 1302.17 | 405.65
272.37 K | 1283.62 | 485.71
276.67 K | 1268.86 | 558.12
283.21 K | 1244.97 | 682.58
287.52 K | 1231.04 | 774.37
294.06 K | 1206.17 | 932.29
298.34 K | 1188.92 | 1047.7
303.44 K | 1168.12 | 1201.9
306.98 K | 1156.73 | 1316.4

CCF [fluoroethane]
Conditions | mass density [kg/m3] | vapor or sublimation pressure [kPa]
231.49 K | 822.41 | 83.13
234.21 K | 817.05 | 94.43
236.99 K | 812.28 | 107.29
239.38 K | 807.75 | 119.32
242.26 K | 802.85 | 135.31
244.45 K | 798.89 | 148.5
247.17 K | 794.45 | 166.36
249.55 K | 790.12 | 183.2
252.04 K | 784.97 | 202.06
254.66 K | 781.18 | 223.94
256.86 K | 777.42 | 243.51
259.79 K | 772.38 | 271.62
261.53 K | 769.17 | 289.32
264.92 K | 762.96 | 326.52
267.46 K | 758.21 | 356.63
270.02 K | 753.26 | 389.01
272.57 K | 748.47 | 423.54
275.14 K | 743.66 | 460.69
277.69 K | 738.45 | 499.68
280.25 K | 734.48 | 542.23
282.93 K | 728.08 | 587.98
285.36 K | 724.27 | 633.63
288.87 K | 715.99 | 701.87
290.5 K | 713.52 | 736.6
293.49 K | 706.47 | 801.35
296.62 K | 699.98 | 874.83
298.35 K | 696.18 | 917.13
301.4 K | 689.76 | 996.4
303.42 K | 685.09 | 1051
305.56 K | 680.24 | 1111.4
308.36 K | 673.98 | 1195.1
311.02 K | 667.87 | 1278.7
313.56 K | 661.98 | 1362.7
316.06 K | 655.89 | 1439.2
318.06 K | 650.99 | 1511.1
320.34 K | 645.22 | 1596.5
322.83 K | 638.81 | 1683.8
325.41 K | 632.16 | 1800.8
328.04 K | 625.04 | 1922.5
330.58 K | 617.82 | 2035.8
332.88 K | 609.12 | 2105.8
335.61 K | 599.54 | 2262.5
337.83 K | 591.63 | 2369.9
340.19 K | 583.39 | 2489.5
343.01 K | 573.25 | 2639
